Assay [1] deals with pentylenetetrazole (PTZ) induced convulsions. In words: Pentylenetetrazole (PTZ) Seizure Test. Conditions: 10 mg/kg p.o., mesylate salt. The class given is in vivo. The protocol:
Rats, placed in individual macrolon cages (25×19×13 cm), were injected with pentylenetetrazole (PTZ) (100 mg/kg s.c.). The occurrence and latency of clonic and tonic convulsions and death were noted over a 30 minute period. 15 rats were studied per group. The test was performed blind. […]
Compounds were evaluated typically using 0.5% dimethylsulfoxide, 4% hydroxypropyl-b-cyclodextrin water as a vehicle at 1 or more doses (e.g., 1, 3 and 10 mg/kg), administered p.o. 30 minutes before PTZ, and compared with a vehicle control group. Diazepam (16 mg/kg p.o.), administered 60 minutes before PTZ, was used as reference substance. The experiment was performed over 2 separate sub-experiments with N=7 to 8 animals per group and per sub-experiment. Quantitative data (latencies) with the test substance was analyzed by comparing treated groups with vehicle control using Kruskal-Wallis test followed by Mann-Whitney U test. Quantitative data with the reference substance was analyzed using Mann-Whitney U test. Quantal data (frequencies) was analyzed by comparing treated groups with vehicle control using Fisher's Exact Probability tests (*=p<0.05; **=p<0.01; ***=p<0.001).

The test system of assay [2] is formalin-induced nociceptive behavior. In words: Rat Formalin Model. The class given is in vivo. The following applies: rats, 10, 30 and 60 mpk i.p., mesylate salt. The method, then:
The rat formalin model is a tonic model of continuous pain resulting from formalin-induced spontaneous nociceptive behaviors. Intra-paw injection of formalin is a commonly used model to measure spontaneous nociceptive behaviors in rodents (Dubuisson, D. and Dennis, S. G. Pain 4:161, 1977). Subcutaneous plantar injection of formalin causes a bi-phasic nocifensive behavioral response in rodents. The early phase (phase-1) lasts for about 5-10 min following which an interphase occurs without any discernible nociceptive reactions after which the late phase (phase-II) nociceptive reaction ensues continuing from about 20-60 min following formalin injection. Formalin model is a model of tonic, persistent pain, and is widely used for rapid screening of novel analgesic compounds. […] In the present example, effects of test item were assessed in 0-5 minutes from the early phase (phase-I) and 20-35 minutes from the late phase (phase-II) of formalin-induced nociceptive behavior. […]
For all groups, animals were acclimated to the observation chamber for 15 minutes immediately prior to formalin injection. All animals received an intraplantar subcutaneous injection of 50 μL of 5% formalin into the left hind paw and then placed immediately into an observation chamber and formalin-evoked spontaneous nociceptive behaviors in the rats were continuously recorded for 0-60 min using a commercial camcorder. […]

For assay [3], the system named is electroconvulsive threshold (tonic convulsions). In words: Electroconvulsive Threshold Test (ECT). The assay is classed as in vivo, rats. The following applies: rats, 3, 10 and 30 mpk p.o., mesylate salt. The method, then:
Test compound E1-8.2 was administered as the free base.
Rats were administered ECS (rectangular current: 0.6 ms pulse width, 1.5 s duration, 200 Hz) via earclip electrodes connected to a constant current shock generator (Ugo Basile: type 7801). Test compounds were administered by oral gavage (p.o.) 1 hour before the test at a dose volume of 5 mL/kg.
Treatment groups of 20 rats were exposed to ECS as follows: The first animal was exposed to 30 mA of ECS. […] (increases of 5 mA) until the first tonic convulsion was observed. Once the first tonic convulsion was observed, the intensity of ECS was decreased by 2 mA for the next animal and then decreased or increased by 2 mA from animal to animal depending on whether the previous animal convulsed or not. If the first animal did convulse (tonic convulsions) within 5 seconds, animal no2 is exposed to 25 mA, etc. . . . (decreases of 5 mA) until the absence of tonic convulsions was observed. At this point, the intensity of ECS was increased by 2 mA for the next animal and then decreased or increased by 2 mA from animal to animal depending on whether the previous animal convulsed or not. The minimum current intensity applied is 5 mA and the maximum 95 mA. The first 5 animals serve to approach threshold current and were not included in the analysis. The results are presented as the mean current intensity administered to the final 15 animals of a group. The test was performed blind. A positive percent change indicates an anticonvulsant effect. A negative percent change indicates a proconvulsant effect. The test substance was evaluated at 4 doses, typically using 0.5% dimethylsulfoxide, 4% hydroxypropyl-b-cyclodextrin water as a vehicle, and administered p.o. 60 minutes before ECS, and compared with a vehicle control group. Diazepam (16 mg/kg p.o.), administered under the same experimental conditions, was used as reference substance. The experiment included 6 groups. Data with the test substance was analyzed by comparing treated groups with vehicle control using one-way ANOVA followed by Dunnett's t tests.

The test system of assay [4] is 6 Hz electrically induced seizures. In words: 6 Hz Seizure Test. The assay is classed as in vivo. The following applies: for forelimb seizure score, change vs vehicle control: mice. The protocol:
Mice were administered a rectangular current (44 mA, rectangular pulse: 0.2 ms pulse width, 3 s duration, 6 Hz) via corneal electrodes connected to a constant current shock generator (Ugo Basile: type 7801). The results for the number of seizures as reflected by forelimb clonus were recorded during the first minute following current administration. Forelimb clonus was scored as absent (0), mild (1) and strong (2). 15 mice were studied per group. The test was performed partially blind (test substance vs vehicle). […] Quantitative data (scores) with the test substance was analyzed by comparing treated groups with vehicle control using Kruskall-Wallis test followed by Mann-Whitney U tests.

Turning to `Cc1ccc(COC(=O)N2CC[C@H](CNc3nccn4cnnc34)C(F)(F)C2)cc1` [Compound E1-1.2, (+)-R-4-methylbenzyl 4-(([1,2,4]triazolo[4,3-a]pyrazin-8-ylamino)methyl)-3,3-difluoropiperidine-1-carboxylate], the “number of rats showing tonic convulsions, change vs vehicle controls” value in assay [1] is −82%. Moreover, in assay [1] (rats), the “latency to clonic convulsions, change vs vehicle controls” value is recorded as “+72%”; the “latency to death, change vs vehicle controls” value is reported as “+35%”; the “latency to tonic convulsions, change vs vehicle controls” value is on record as “+39%”; the “number of deaths, change vs vehicle controls” value is reported as −91%. Besides, in assay [2], the “cumulative time spent on nociceptive behavior in phase I (0-5 mins)” value was “decreased” and the “cumulative time spent on nociceptive behavior in phase II (20-35 mins)” value is reported as “decreased”. For the same compound, in assay [3], the “electroconvulsive threshold, pro-/anticonvulsant activity” value was “robust anticonvulsant activity”. The “number of mice with Straub tail, change vs vehicle control” value in assay [4] (10 mg/kg p.o., NS) is reported as −13%. The “number of mice with Straub tail, change vs vehicle control” value in assay [4] (30 mg/kg p.o.) was −40%. For the same compound, in assay [4] (10 mg/kg p.o. 30 minutes before the test), the “forelimb seizure score, change vs vehicle control” value is −50%. For the same compound, the “forelimb seizure score, change vs vehicle control” value in assay [4] (30 mg/kg p.o. 30 minutes before the test) is −70%.

Values taken from patent publication US10294230B2, “3,3-difluoropiperidine carbamate heterocyclic compounds as NR2B NMDA receptor antagonists” (Rugen Holdings (Cayman) Limited, priority 2015, dated 2019).
